In this experiment the target is Complement C3 (Homo sapiens, UniProt P01024). The experiment in a line: Binding affinity to recombinant human C3d assessed as dissociation constant incubated for 5 mins by microscale thermophoresis assay. (In general: Microscale thermophoresis detects binding through changes in fluorescence in a small temperature gradient.)

pKd: −log10 of the molar value.

Chain of Complement C3 (P01024 23-667 limits assumed): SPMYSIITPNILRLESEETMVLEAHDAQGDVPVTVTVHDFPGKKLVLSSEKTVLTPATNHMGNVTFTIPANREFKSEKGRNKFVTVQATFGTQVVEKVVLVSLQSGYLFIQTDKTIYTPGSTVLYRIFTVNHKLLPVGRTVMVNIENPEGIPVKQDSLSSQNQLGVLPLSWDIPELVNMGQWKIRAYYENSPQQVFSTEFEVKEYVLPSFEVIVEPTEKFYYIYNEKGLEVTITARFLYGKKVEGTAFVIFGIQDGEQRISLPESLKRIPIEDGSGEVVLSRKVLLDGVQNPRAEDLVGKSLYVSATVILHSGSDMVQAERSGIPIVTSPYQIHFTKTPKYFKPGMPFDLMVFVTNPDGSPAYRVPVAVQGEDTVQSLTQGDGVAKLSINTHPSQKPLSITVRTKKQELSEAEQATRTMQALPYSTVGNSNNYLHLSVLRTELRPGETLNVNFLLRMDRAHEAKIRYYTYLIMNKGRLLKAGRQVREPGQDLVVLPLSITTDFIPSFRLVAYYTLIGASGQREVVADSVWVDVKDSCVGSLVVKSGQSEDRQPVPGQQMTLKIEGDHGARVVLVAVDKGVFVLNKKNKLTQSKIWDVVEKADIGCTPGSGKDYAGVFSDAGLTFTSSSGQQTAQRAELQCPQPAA
Chain of Complement C3 (P01024 672-1663 limits assumed): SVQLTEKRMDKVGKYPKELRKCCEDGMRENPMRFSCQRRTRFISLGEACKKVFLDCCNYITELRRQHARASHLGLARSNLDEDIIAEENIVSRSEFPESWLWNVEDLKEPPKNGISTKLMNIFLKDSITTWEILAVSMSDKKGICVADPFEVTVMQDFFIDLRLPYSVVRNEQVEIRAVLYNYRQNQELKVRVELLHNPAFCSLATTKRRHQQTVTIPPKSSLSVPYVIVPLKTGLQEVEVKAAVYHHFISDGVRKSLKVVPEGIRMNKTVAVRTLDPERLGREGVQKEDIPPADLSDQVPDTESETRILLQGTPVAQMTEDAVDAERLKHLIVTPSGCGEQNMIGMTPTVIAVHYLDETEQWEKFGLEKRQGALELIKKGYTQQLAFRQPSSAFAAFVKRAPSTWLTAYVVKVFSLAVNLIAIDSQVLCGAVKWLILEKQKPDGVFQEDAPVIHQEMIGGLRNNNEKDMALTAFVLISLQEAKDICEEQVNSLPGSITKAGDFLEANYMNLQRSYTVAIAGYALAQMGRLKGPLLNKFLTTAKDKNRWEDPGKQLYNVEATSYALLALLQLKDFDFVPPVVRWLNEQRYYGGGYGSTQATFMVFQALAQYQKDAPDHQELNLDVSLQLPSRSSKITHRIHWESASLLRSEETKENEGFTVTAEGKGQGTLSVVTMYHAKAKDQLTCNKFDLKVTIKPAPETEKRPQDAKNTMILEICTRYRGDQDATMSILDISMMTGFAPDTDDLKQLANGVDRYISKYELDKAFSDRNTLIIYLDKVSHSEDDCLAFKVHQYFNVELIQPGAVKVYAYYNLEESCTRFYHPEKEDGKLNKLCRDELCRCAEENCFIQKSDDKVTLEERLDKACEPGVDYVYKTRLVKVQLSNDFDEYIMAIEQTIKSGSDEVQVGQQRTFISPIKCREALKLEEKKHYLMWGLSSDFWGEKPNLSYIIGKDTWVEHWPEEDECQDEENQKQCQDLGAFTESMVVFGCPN

For the compound `CC(=O)NCC(=O)N[C@H]1CSSC[C@@H](C(=O)NCC(N)=O)NC(=O)[C@H](CCCNC(=N)N)NC(=O)[C@H](Cc2ccc(O)cc2)NC(=O)CNC(=O)[C@H](CCCNC(=N)N)NC(=O)[C@H](CCCCN)NC1=O` (stereo in doubt; form 2), the negative logarithm of the Kd (pKd) is 4.21.

Broadly, the pKd is the Kd on a negative log10 scale, so that one unit is a factor of ten.

The record behind these values is ChEMBL document CHEMBL4613323, “Factor H-Inspired Design of Peptide Biomarkers of the Complement C3d Protein” (ACS Med Chem Lett, 2020).
